According to ChEMBL document CHEMBL3045649, “Green approach towards synthesis of substituted pyrazole-1,4-dihydro,9-oxa,1,2,6,8-tetrazacyclopentano[b]naphthalene-5-one derivatives as antimycobacterial agents” (2013):
In brackets after ≈: the same amount, converted by molar mass.

Columns and labels:
Format in all cases: functional
[1] = tested on: Mycobacterium tuberculosis; assay: Antimycobacterial activity against Mycobacterium tuberculosis MTCC 300 assessed as growth inhibition at 1 mg/ml after 24 hr by agar well diffusion method; details: MTCC 300, 24 h, read-out: DIZ
Mycolicibacterium phlei [2] = assay: Antimycobacterial activity against Mycobacterium phlei NCIM 2240 assessed as growth inhibition at 1 mg/ml after 24 hr by agar well diffusion method; details: NCIM 2240, 24 h, read-out: DIZ
[3] = tested on: Mycolicibacterium smegmatis; assay: Antimycobacterial activity against Mycobacterium smegmatis NCIM 5138 assessed as growth inhibition at 0.1 mg/ml after 24 hr by agar well diffusion method; details: NCIM 5138, 24 h, read-out: DIZ
[4] = tested on: Mycolicibacterium smegmatis; assay: Antimycobacterial activity against Mycobacterium smegmatis NCIM 5138 assessed as growth inhibition at 1 mg/ml after 24 hr by agar well diffusion method; details: NCIM 5138, 24 h, read-out: DIZ
[5] = tested on: Mycolicibacterium smegmatis; assay: Antimycobacterial activity against Mycobacterium smegmatis NCIM 5138 assessed as growth inhibition at 0.5 mg/ml after 24 hr by agar well diffusion method; details: NCIM 5138, 24 h, read-out: DIZ
[6] = tested on: Mycolicibacterium smegmatis; assay: Antimycobacterial activity against Mycobacterium smegmatis NCIM 5138 assessed as growth inhibition after 24 hr by agar well diffusion method; details: NCIM 5138, 24 h
Mycolicibacterium phlei [7] = assay: Antimycobacterial activity against Mycobacterium phlei NCIM 2240 assessed as growth inhibition after 24 hr by agar well diffusion method; details: NCIM 2240, 24 h
Mycolicibacterium phlei [8] = assay: Antimycobacterial activity against Mycobacterium phlei NCIM 2240 assessed as growth inhibition at 0.5 mg/ml after 24 hr by agar well diffusion method; details: NCIM 2240, 24 h, read-out: DIZ
[9] = tested on: Mycobacterium tuberculosis; assay: Antimycobacterial activity against Mycobacterium tuberculosis MTCC 300 assessed as growth inhibition after 24 hr by agar well diffusion method; details: MTCC 300, 24 h
Mycolicibacterium phlei [10] = assay: Antimycobacterial activity against Mycobacterium phlei NCIM 2240 assessed as growth inhibition at 0.1 mg/ml after 24 hr by agar well diffusion method; details: NCIM 2240, 24 h, read-out: DIZ
[11] = tested on: Mycobacterium tuberculosis; assay: Antimycobacterial activity against Mycobacterium tuberculosis MTCC 300 assessed as growth inhibition at 0.5 mg/ml after 24 hr by agar well diffusion method; details: MTCC 300, 24 h, read-out: DIZ
[12] = tested on: Mycobacterium tuberculosis; assay: Antimycobacterial activity against Mycobacterium tuberculosis MTCC 300 assessed as growth inhibition at 0.1 mg/ml after 24 hr by agar well diffusion method; details: MTCC 300, 24 h, read-out: DIZ

Row | Compound | zone of inhibition at 1000 µg/mL [1] [mm] | zone of inhibition at 1000 µg/mL (Mycolicibacterium phlei [2]) [mm] | zone of inhibition at 100 µg/mL [3] [mm] | zone of inhibition at 1000 µg/mL [4] [mm] | zone of inhibition at 500 µg/mL [5] [mm] | MIC [6] [mg/L] | MIC (Mycolicibacterium phlei [7]) [mg/L] | zone of inhibition at 500 µg/mL (Mycolicibacterium phlei [8]) [mm] | MIC [9] [mg/L] | zone of inhibition at 100 µg/mL (Mycolicibacterium phlei [10]) [mm] | zone of inhibition at 500 µg/mL [11] [mm] | zone of inhibition at 100 µg/mL [12] [mm]
1 | Cc1nn(-c2ccccc2)c2c1C(c1cn(-c3ccccc3)nc1-c1ccc(Cl)cc1)C1=C(NC(C)(c3cc(Cl)ccc3O)NC1=O)O2 (stereo not given) | 1.9 | 3.5 | 1.5 | 3.6 | 2.3 | 100 (≈ 148 µM) | 100 (≈ 148 µM) | 2.4 | 1000 (≈ 1480 µM) | 2 | – | –
2 | Cc1nn(-c2ccccc2)c2c1C(c1cn(-c3ccccc3)nc1-c1ccc(F)cc1)C1=C(NC(C)(c3ccc(O)c(Cl)c3O)NC1=O)O2 (stereo not given) | 2 | 2.5 | 4.5 | 11.5 | 7.6 | 70 (≈ 104 µM) | 50 (≈ 74.1 µM) | 1.5 | 1000 (≈ 1480 µM) | 3.4 | – | –
3 | CO[C@H]1/C=C/O[C@@]2(C)Oc3c(C)c(O)c4c(O)c(c(/C=N/N5CCN(C)CC5)c(O)c4c3C2=O)NC(=O)/C(C)=C\C=C\[C@H](C)[C@H](O)[C@@H](C)[C@@H](O)[C@@H](C)[C@H](OC(C)=O)[C@@H]1C [RIFAMPIN] | – | – | – | – | – | 480 (≈ 583 µM) | 40 (≈ 48.6 µM) | – | 280 (≈ 340 µM) | – | – | –
4 | Cc1nn(-c2ccccc2)c2c1C(c1cn(-c3ccccc3)nc1-c1ccc(F)cc1)C1=C(NC(C)(c3cc(Cl)ccc3O)NC1=O)O2 (stereo not given) | – | – | 1.9 | 3.2 | 2.2 | 100 (≈ 152 µM) | – | – | – | – | – | –
5 | Cc1nn(-c2ccccc2)c2c1C(c1cn(-c3ccccc3)nc1-c1ccc(F)cc1)C1=C(NC(C)(c3cc(Cl)cc(I)c3O)NC1=O)O2 (stereo not given) | – | 8.6 | 5.6 | 12 | 9 | 60 (≈ 76.4 µM) | 60 (≈ 76.4 µM) | 7.1 | – | 5.8 | – | –
6 | Cc1nn(-c2ccccc2)c2c1C(c1cn(-c3ccccc3)nc1-c1ccc(Cl)cc1)C1=C(NC(C)(c3cc(Cl)cc(I)c3O)NC1=O)O2 (stereo not given) | – | 2.8 | 4.2 | 5.4 | 5 | 70 (≈ 87.3 µM) | 50 (≈ 62.4 µM) | 1.5 | – | – | – | –
7 | COc1ccc(-c2nn(-c3ccccc3)cc2C2C3=C(NC(C)(c4cc(Cl)ccc4O)NC3=O)Oc3c2c(C)nn3-c2ccccc2)cc1 (stereo not given) | – | 2 | 2.8 | 5.2 | 4.2 | 90 (≈ 134 µM) | 1000 (≈ 1490 µM) | – | – | – | – | –
8 | Cc1nn(-c2ccccc2)c2c1C(c1cn(-c3ccccc3)nc1-c1ccc(Cl)cc1)C1=C(NC(C)(c3ccc(O)cc3O)NC1=O)O2 (stereo not given) | – | 4.5 | 1.6 | 3.2 | 1.9 | 100 (≈ 152 µM) | 70 (≈ 107 µM) | 3.8 | – | 2.5 | – | –
9 | COc1ccc(-c2nn(-c3ccccc3)cc2C2C3=C(NC(C)(c4cc(Cl)cc(I)c4O)NC3=O)Oc3c2c(C)nn3-c2ccccc2)cc1 (stereo not given) | 3.6 | 8.8 | 8 | 12 | 10.8 | 50 (≈ 62.7 µM) | 70 (≈ 87.8 µM) | 6.2 | 100 (≈ 125 µM) | 4 | 2.5 | 2
10 | Cc1nn(-c2ccccc2)c2c1C(c1cn(-c3ccccc3)nc1-c1ccc(Cl)cc1)C1=C(NC(C)(c3ccc(O)c(Cl)c3O)NC1=O)O2 (stereo not given) | 1.5 | 6.5 | 3.8 | 6.8 | 5.2 | 70 (≈ 101 µM) | 90 (≈ 130 µM) | 4 | 1000 (≈ 1450 µM) | 2.5 | – | –
11 | Cc1nn(-c2ccccc2)c2c1C(c1cn(-c3ccccc3)nc1-c1ccc(F)cc1)C1=C(NC(C)(c3ccc(O)cc3O)NC1=O)O2 (stereo not given) | – | 2.2 | 4.1 | 6.5 | 5.5 | 40 (≈ 62.4 µM) | 50 (≈ 78 µM) | 1.5 | – | – | – | –
